The source of these data is paper PMC6722498, “Non-CYP2D6 Variants Selected by a GWAS Improve the Prediction of Impaired Tamoxifen Metabolism in Patients with Breast Cancer” (Journal of Clinical Medicine, 2019).

The subject of one data set is estrogen receptor (ER). On the set-up: method as in PMID 15111773, PMID 16690721, PMID 21451508. The following applies: fold higher; cited from earlier work.
Data set [1] in a line: Steady-state plasma concentration of (Z)-endoxifen (UPLC-MS/MS) in tamoxifen-treated breast cancer patients. Format: in vivo, human. The following applies: tamoxifen 20 mg daily. The source says:
(§1) Between May 2012 and June 2014, 293 patients were recruited for a study of CYP2D6 genotype association with plasma concentrations of tamoxifen and its metabolites. Details of the inclusion criteria, study protocol, genotyping and mass spectrometry (MS) methodology, and primary results were reported previously. Briefly, all patients were Polish Caucasians, unselected women with verified hormone receptor-positive breast cancer (median age at diagnosis: 55 years; range: 25–95 years) receiving the standard treatment of 20 mg of tamoxifen daily for at least 1 month to ensure the steady-state plasma concentration of tested compounds. The median time between the initiation of tamoxifen treatment and blood sample collection was 21.5 months. Six patients had plasma drug concentrations <10% of the mean tamoxifen level across all patients and were excluded from further analyses.
(§2) As previously described, whole blood samples were collected at study enrollment, and plasma was immediately separated and stored at −80 °C until ultraperformance liquid chromatography tandem MS (UPLC-MS/MS) analysis. For all samples, plasma concentrations of tamoxifen and its 14 key metabolites were measured, including the following: NDM-Tam, (Z)-endoxifen, (E)-endoxifen, 3-OH-NDM-Tam, 4′-OH-NDM-Tam, (Z)-4-OH-Tam, 3-OH-Tam, 4′-OH-Tam, (Z)-α-OH-Tam, (E)-α-OH-Tam, Tam-N-oxide, Tam-N-β-D-glucuronide (Tam-N-gluc), (E/Z)-4-OH-NDM-Tam-β-D-glucuronide ((E/Z)-4-OH-NDM-Tam-gluc), and (E)-4-OH-Tam-O-β-D-glucuronide ((E)-4-OH-Tam-O-gluc). All of the above compounds and deuterated internal standards (Tam-d5, NDM-Tam-d5, and (Z)-4-OH-Tam-d5) were from Toronto Research Chemicals (North York, ON, Canada). Details of the sample preparation method, MS/MS parameters, and linearity ranges of the metabolite standards are included in File S1.
Sample preparation was carried out as described by Dahmane et al., with slight modifications, including protein precipitation by acetonitrile. Briefly, 100 µl of plasma was mixed with 300 µl of ISs solution (3.3 ng/ml of Tam-d5, 3.3 ng/ml of NDM-Tam-d5 and 4.2 ng/ml of (Z)-4-OH-Tam-d5) in acetonitrile. After vortexing and centrifugation (10 min; 18,000× g), 350 µl of clear supernatant was evaporated under nitrogen in 55°C. Finally, samples were dissolved in 100 µl of 10 mM ammonium formate in 50% methanol.
For sample separation, an Acquity UPLC system equipped with Acquity BEH Shield RP18 column (100 × 2.1 mm, 1.7 µm particle size) (Waters, Milford, MA, USA) was used. The column was thermostatted at 70°C. The mobile phase A consisted of ultrapure water, and phase B consisted of 0.1% formic acid in acetonitrile. The flow rate was 0.6 ml/min and the total run time was 16 min per sample under nonlinear gradient condition as follows: 10% to 80% B for 12 min (concave curve), 80% B for 2 min, 95% B for 1 min and 10% B for 1 min.
Detection was performed on a triple quadrupole mass spectrometer Xevo TQ-MS (Waters) in the positive ion electrospray ionization mode, with general mass spectrometry (MS) parameters as follows: capillary voltage, 3 kV; desolvation temperature, 550°C; desolvation gas (nitrogen) flow, 1000 l/h; cone gas (nitrogen) flow, 100 l/h and collision gas (argon) flow, 0.15 ml/min. Waters QuanLynx software was used for chromatograms integration and quantitation.
All compounds were divided between two calibration sets, A and B (Table 1), based on characteristic ions and retention times. Each set consisted of six calibration samples (CAL1 to CAL6) prepared by spiking blank plasma sample by an appropriate amount of analyte. The calibration range was chosen based on others’ published data, expected steady-state plasma metabolite concentration and our previous measurements. Linear calibration curves were obtained by plotting response (obtained by dividing peak area of analyte by peak area of internal standard) against calibration point of known concentration. […]

Data set [2] can be described thus: Metabolic ratio (MR): (Z)-endoxifen plasma concentration divided by the sum of concentrations of tamoxifen and other measured metabolites. It counts as in vivo, human. The following applies: for Metabolic Ratio of (Z)-endoxifen, Mean ± SD: tamoxifen 20 mg daily, plasma; for Metabolic ratio (MR): individual tamoxifen-treated breast cancer patient samples.
From the text: We previously reported that the CYP2D6 genotype accounts for 51% of the variability in tamoxifen metabolism directed toward endoxifen production, expressed as the metabolic ratio (MR) of (Z)-endoxifen (the major isomer of endoxifen produced from tamoxifen) plasma concentration divided by the sum of concentrations of tamoxifen and other measured metabolites. The metabolic ratio is more useful than (Z)-endoxifen concentration alone, because it accounts for omitted drug doses or the concomitant use of CYP2D6 inhibitors. Using simple linear regression, we estimated that an MR value of 0.0146 corresponds to the predefined 6 ng mL^−1 (Z)-endoxifen efficacy threshold level. Here, we adopted a genome-wide association study (GWAS) approach to search for new DNA variants that could assist in the prediction of impaired tamoxifen metabolism in Polish patients with breast cancer treated with the standard daily dose (20 mg).
as §1, §2
Genomic DNA samples extracted from blood were genotyped for CYP2D6 alleles, according to the nomenclature described at https://www.parmvar.org/gene/CYP2D6 [10], as previously reported. Briefly, individual TaqMan allelic discrimination assays were performed for 11 SNPs, and 3 TaqMan Gene Copy Number Assays were conducted to assess gene deletion or duplication (Thermo Fisher, Waltham, MA, USA). Each CYP2D6 allele was assigned to one of four phenotypic categories, according to its associated enzyme function. PM (nonfunctional) alleles included CYP2D6*3, *4, *5, *6, and *7; IM (reduced-function) alleles were CYP2D6*9, *10, *17, and *41; NM (WT; fully functional) alleles included CYP2D6*1 and *2; and UM (increased-function) alleles were duplicates of NM variants, such as CYP2D6*1XN and *2XN. For the current study, patients were categorized into two groups of CYP2D6 functional activity: 1) Impaired metabolizers, who were presumed to have impaired metabolism of tamoxifen toward endoxifen (with CYP2D6 diplotypes PM/PM, IM/PM, IM/IM, NM/PM, and NM/IM), and 2) normal metabolizers, with predicted therapeutically effective tamoxifen metabolism (carrying CYP2D6 diplotypes NM/NM and NM/UM).

On the set-up of data set [3]: method as in PMID 26232141. The following applies: Polish women with fully active CYP2D6 (NM/NM); tamoxifen 20 mg daily; cited from earlier work.
Details of data set [4]: method as in PMID 26232141. Conditions: simple linear regression; corresponds to predefined 6 ng mL^−1 (Z)-endoxifen threshold; cited from earlier work.
In the next data set the test system is breast cancer. The following applies: cited from earlier work.

“And” between values parts separate entries of the source, which are not always exact repeats. Identical values can stand only once. Like-named read-outs stand apart in the source and are kept apart here.

Consider 4-hydroxy-tamoxifen [4-OH-Tam], for which the “antiestrogenic potency relative to other tamoxifen metabolites and the parent drug” value with estrogen receptor (ER) is “up to 100 fold”.

In the case of `CC/C(=C(\c1ccc(O)cc1)c1ccc(OCCNC)cc1)c1ccccc1` [(Z)-endoxifen, (Z)-4-hydroxy-N-desmethyl-tamoxifen], the “(Z)-endoxifen steady-state plasma concentration, Mean ± SD” value worked out at 3.05 ± 1.91 ng/mL in data set [1] (CYP2D6 genotype IM/IM (n=3)); 2.22 ± 0.87 ng/mL in data set [1] (CYP2D6 genotype IM/PM (n=12)); 5.60 ± 3.26 ng/mL in data set [1] (CYP2D6 genotype NM/IM (n=44)); 7.26 ± 3.18 ng/mL in data set [1] (CYP2D6 genotype NM/NM (n=90)); 4.85 ± 2.46 ng/mL in data set [1] (CYP2D6 genotype NM/PM (n=99)); 6.96 ± 3.75 ng/mL in data set [1] (CYP2D6 genotype NM/UM (n=18)). Further, the “(Z)-endoxifen steady-state plasma concentration, Mean ± SD” value in data set [1] (CYP2D6 genotype PM/PM (n=21)) came out at 1.79 ± 0.66 ng/mL. In addition, the “Metabolic Ratio of (Z)-endoxifen, Mean ± SD” value in data set [2] (CYP2D6 genotype IM/IM (n=3)) came out at 0.0063 ± 0.0022; in data set [2] (CYP2D6 genotype IM/PM (n=12)) it was 0.0047 ± 0.0014; in data set [2] (CYP2D6 genotype NM/IM (n=44)), 0.0125 ± 0.0054; in data set [2] (CYP2D6 genotype NM/NM (n=90)), 0.0185 ± 0.0057; in data set [2] (CYP2D6 genotype NM/PM (n=99)), 0.0108 ± 0.0043; in data set [2] (CYP2D6 genotype NM/UM (n=18)) it was 0.0201 ± 0.0076. In data set [2] (CYP2D6 genotype PM/PM (n=21)), the “Metabolic Ratio of (Z)-endoxifen, Mean ± SD” value turned out to be 0.0037 ± 0.0013. For the same compound, the “Metabolic ratio (MR)” value was 0.00274 and 0.00459 and 0.0029 and 0.00363 in data set [2] (CYP2D6 genotype IM/PM); 0.00647 and 0.0081 and 0.00839 and 0.01209 and 0.0056 and 0.01085 and 0.0096 and 0.00997 and 0.01604 in data set [2] (CYP2D6 genotype NM/IM); 0.01773 and 0.01628 and 0.0192 and 0.02007 and 0.01314 and 0.01689 and 0.01957 and 0.01357 and 0.0089 and 0.01713 and 0.01204 and 0.01768 and 0.01853 and 0.01753 and 0.01866 and 0.01752 and 0.01504 and 0.00404 and 0.01279 and 0.01592 and 0.01076 and 0.01005 and 0.01645 in data set [2] (CYP2D6 genotype NM/NM); 0.01496 and 0.01155 and 0.00944 and 0.00815 and 0.01001 and 0.01495 and 0.00803 and 0.01657 and 0.01419 and 0.01098 and 0.0072 and 0.00801 and 0.01175 and 0.00523 and 0.00652 and 0.00522 and 0.00788 and 0.00603 and 0.00607 and 0.00605 and 0.01073 in data set [2] (CYP2D6 genotype NM/PM); 0.013 and 0.01894 and 0.02933 and 0.01233 in data set [2] (CYP2D6 genotype NM/UM); 0.00294 and 0.00405 and 0.0035 and 0.00163 in data set [2] (CYP2D6 genotype PM/PM). Further, the “proportion of patients not achieving the beneficial threshold level of plasma (Z)-endoxifen” value in data set [3] is “over 30%”. For the same compound, in data set [4], the “MR value corresponding to the (Z)-endoxifen efficacy threshold level” value was 0.0146.

Turning to `CC/C(=C(\c1ccc(O)cc1)c1ccc(OCCNC)cc1)c1ccccc1` [endoxifen, 4-hydroxy-N-desmethyl-tamoxifen], in the data set on breast cancer (large retrospective study, lowest quintile), the “minimal threshold level of endoxifen to achieve the desired treatment efficacy” value was above 5.97 ng/mL. The “lower breast cancer recurrence rate relative to patients with lower endoxifen concentrations” value in the data set with breast cancer (patients with endoxifen concentration >5.97 ng mL^−1) is listed as 26%. In addition, the “endoxifen efficacy threshold level” value with breast cancer (ref 30) is 5.3 ng/mL; in the data set with breast cancer (ref 32), 3.36 ng/mL. In addition, the “antiestrogenic potency relative to other tamoxifen metabolites and the parent drug” value in the data set on estrogen receptor (ER) is “up to 100 fold”.
